Assay results from patent US12384753B2, “17-beta-hydroxysteroid dehydrogenase type 13 inhibitors and methods of use thereof” (Enanta Pharmaceuticals, Inc., priority 2021, dated 2025).
pIC50: −log10 of the molar value.

molecular target: Recombinant human HSD17B13 (Homo sapiens (Human), UniProt Q7Z5P4); test: HSD17B13 rapid-fire mass spectrometry assay (RF/MS assay); assay type: biochemical; details: inhibition of HSD17B13; LTB4 10 μM, NAD+ 0.5 mM, RT 3 h; IC50 ranges A-E
Procedure, shortened: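 Product 12-oxo-LTB4 and substrate LTB4 quantified by RapidFire triple-quad MS in negative mode, giving percent conversion. Reaction: 80 nM recombinant hHSD17B13, 10 μM LTB4, 0.5 mM NAD+, compound up to 100 μM, pH 7.5, RT, 3 h. Variable-slope fit gave IC50; run in duplicate.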

Chain of Recombinant human HSD17B13 (Q7Z5P4 20-300): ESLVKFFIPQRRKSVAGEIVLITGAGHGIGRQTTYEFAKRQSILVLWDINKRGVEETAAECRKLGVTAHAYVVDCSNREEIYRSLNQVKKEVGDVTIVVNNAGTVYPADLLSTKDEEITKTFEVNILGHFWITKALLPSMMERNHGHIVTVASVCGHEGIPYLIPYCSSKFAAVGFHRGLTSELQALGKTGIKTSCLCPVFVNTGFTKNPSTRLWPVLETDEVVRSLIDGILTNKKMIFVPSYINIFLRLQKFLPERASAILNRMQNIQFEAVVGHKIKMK

Row | SMILES | pIC50
1 | COc1cc(C(=O)O)ccc1NS(=O)(=O)c1cnc(-c2ccccc2)o1 [Example 81] | 6.30 to 7.00
2 | COc1ccc(-c2nc(S(=O)(=O)Nc3ccc(C(=O)O)cc3)cs2)cc1 [Example 56, 4-((2-(4-methoxyphenyl)thiazole)-4-sulfonamido)benzoic acid] | 6.00 to 6.30
3 | COc1cc(C(=O)O)c(F)cc1NS(=O)(=O)c1coc(-c2ccc([C@H]3CC[C@H](C(F)(F)F)CC3)cc2)n1 [Example 492] | > 7.00
4 | COc1cc(C(=O)O)ccc1NS(=O)(=O)c1csc(N2CC(c3ccccc3)C2)n1 [Example 267] | 4.00 to 6.00
5 | COc1cc(C(=O)O)c(F)cc1NS(=O)(=O)c1csc(-c2ccc(-c3ccc(C(F)(C(F)(F)F)C(F)(F)F)cc3)cc2C(F)(F)F)n1 [Example 795] | > 7.00
6 | COc1cc(C(=O)O)c(F)cc1NS(=O)(=O)c1coc(-c2ccc(C3=CCC(C(F)(F)F)CC3)cc2)n1 (centres unmarked) [Example 483] | > 7.00
7 | COc1cc(C(=O)O)ccc1NS(=O)(=O)c1csc(C#Cc2cccs2)n1 [Example 218] | > 7.00
8 | CCCCOc1c(F)c(-c2nc(S(=O)(=O)Nc3cc(F)c(C(=O)O)cc3OC)cs2)ccc1[C@H]1CC[C@@H](C(C)C)CC1 [Example 588] | 6.30 to 7.00
9 | COc1cc(C(=O)O)ccc1NS(=O)(=O)c1csc(-c2ccc(N3CCOCC3)cc2)n1 [Example 303] | 4.00 to 6.00
10 | O=S(=O)(Nc1ccc(O)c(Cl)c1)c1cnc(-c2ccc(F)cc2)s1 [Example 114] | 4.00 to 6.00
11 | COC/C=C/c1ccc(-c2ncc(S(=O)(=O)Nc3ccc(C(=O)O)cc3OC)s2)cc1 [Example 449, (E)-3-methoxy-4-((2-(4-(3-methoxyprop-1-en-1-yl)phenyl)thiazole)-5-sulfonamido)benzoic acid] | 6.30 to 7.00
12 | COc1cc(C(=O)O)ccc1NS(=O)(=O)c1csc(N2CCCC(c3ccc(F)cc3)C2)n1 (centres unmarked) [Example 292] | 4.00 to 6.00
13 | COc1cc(C(=O)O)ccc1NS(=O)(=O)c1csc(N2CCCCC2c2ccccc2)n1 (centres unmarked) [Example 270] | 6.30 to 7.00
14 | COc1cc(C(=O)O)ccc1NS(=O)(=O)c1csc(-c2ccccc2C#N)n1 [Example 159] | 4.00 to 6.00
15 | COc1cc(O)ccc1NS(=O)(=O)c1cnc(-c2ccc(F)cc2)s1 [Example 110] | 4.00 to 6.00
16 | COc1cc(C(=O)O)ccc1NS(=O)(=O)c1ccc(-c2ccccc2OC)s1 [Example 193] | 6.30 to 7.00
17 | COc1cc(C(=O)O)c(F)cc1NS(=O)(=O)c1cnn(-c2ccc([C@H]3CC[C@H](C(C)C)CC3)cc2)c1 [Example 688] | 6.30 to 7.00
18 | COc1cc(C(=O)O)c(F)cc1NS(=O)(=O)c1cnn(-c2ccc([C@H]3CC[C@@H](C(F)(F)F)CC3)cc2)c1 [Example 685, 2-fluoro-5-methoxy-4-((1-(4-((1s,4s)-4-(trifluoromethyl)cyclohexyl)phenyl)-1H-pyrazole)-4-sulfonamido)benzoic acid] | 6.30 to 7.00
19 | COc1cc(C(=O)O)ccc1NS(=O)(=O)c1ccc(-c2ccc(C3CCCCC3)cc2)cc1 [Example 361] | 4.00 to 6.00
20 | CC[C@H]1CC[C@H](c2ccc(-c3ncc(S(=O)(=O)Nc4cc(F)c(C(=O)O)cc4OC)s3)cc2)CC1 [Example 642] | 6.30 to 7.00
21 | COc1cc(C(=O)O)ccc1NS(=O)(=O)c1csc(C#Cc2ccc([N+](=O)[O-])cc2)n1 [Example 209] | 6.30 to 7.00
22 | COc1cc(C(=O)O)ccc1NS(=O)(=O)c1ccc(-c2ccc(C)cc2)s1 [Example 175] | 6.30 to 7.00

Row | SMILES | pIC50
23 | COc1cc(C(=O)O)ccc1NS(=O)(=O)c1csc(-c2ccc(-c3ccccc3)cc2)n1 [Example 301] | 6.00 to 6.30
24 | COc1cc(C(=O)O)ccc1NS(=O)(=O)c1csc(N2CCN(c3nccs3)CC2)n1 [Example 264] | 4.00 to 6.00
25 | COc1cc(C(=O)O)ccc1NS(=O)(=O)c1csc(-c2ccc(C(F)(F)F)cc2)n1 [Example 98] | 6.30 to 7.00
26 | COc1cc(P(=O)(O)O)ccc1NS(=O)(=O)c1csc(-c2ccc(C3CCCCC3)cc2)n1 [Example 484, (4-((2-(4-cyclohexylphenyl)thiazole)-4-sulfonamido)-3-methoxyphenyl)phosphonic acid] | 4.00 to 6.00
27 | CCCCC[C@H]1CC[C@H](c2ccc(-c3nc(S(=O)(=O)Nc4cc(F)c(C(=O)O)cc4OC)cs3)cc2)CC1 [Example 706] | > 7.00
28 | COc1cc(C(=O)O)c(F)cc1NS(=O)(=O)c1ccc(-c2ccc(F)cc2)s1 [Example 231] | > 7.00
29 | COc1cc(C(=O)O)c(F)cc1NS(=O)(=O)c1csc(-c2ccc(-c3ccc(C45CC6C[C@H](C4)C[C@H](C6)C5)cc3)c(OC(F)(F)F)c2)n1 [Example 750] | 6.30 to 7.00
30 | COc1cc(C(=O)O)ccc1NS(=O)(=O)c1ccc(-c2cccc(C(F)(F)F)c2)s1 [Example 212] | > 7.00
31 | COc1cc(C(=O)O)c(F)cc1NS(=O)(=O)c1csc(C#Cc2cccc(C)c2)n1 [Example 236] | > 7.00
32 | CCCCC[C@H]1CC[C@H](c2ccc(-c3cccc(S(=O)(=O)Nc4ccc(C(=O)O)cc4OC)c3F)cc2)CC1 [Example 470] | 6.30 to 7.00
33 | COc1cc(C(=O)O)c(F)cc1NS(=O)(=O)c1cnc(-c2ccc([C@H]3CC[C@H](C(C)(C)C)CC3)cc2)s1 [Example 721] | 6.30 to 7.00
34 | COc1cc(C(=O)O)c(F)cc1NS(=O)(=O)c1coc(-c2ccc(C3=CCC(C)(C)CC3)cc2)n1 [Example 482] | > 7.00
35 | COc1cc(C(=O)O)c(F)cc1N(C)S(=O)(=O)c1csc(-c2ccc(C3CCC(C)(C)CC3)cc2C(F)(F)F)n1 [Example 683] | 6.30 to 7.00
36 | COc1cc(C(=O)O)c(F)cc1NS(=O)(=O)c1coc(-c2ccc([C@H]3CC[C@@H](C(F)(F)F)CC3)cc2)n1 [Example 493] | > 7.00
37 | O=C(O)c1ccc2c(c1)N(S(=O)(=O)c1ccc(F)cc1)CC2 [Example 10] | 4.00 to 6.00
38 | COc1cc(C(=O)O)c(F)cc1NS(=O)(=O)c1ccc2sc(-c3ccc(C4CCCCC4)cc3C(F)(F)F)nc2c1 [Example 703] | 6.00 to 6.30
39 | O=S(=O)(Nc1ccc(CO)cc1)c1cnc(-c2ccc(F)cc2)s1 [Example 36, 2-(4-fluorophenyl)-N-(4-(hydroxymethyl)phenyl)thiazole-5-sulfonamide] | 4.00 to 6.00
40 | COc1cc(C(=O)O)c(F)cc1NS(=O)(=O)c1csc(-c2ccc(-c3ccc(C45CC6C[C@H](C4)C[C@H](C6)C5)cc3)cc2)n1 [Example 731] | > 7.00
41 | COc1cc(C(=O)O)c(C2=CCCC2)cc1NS(=O)(=O)c1csc(-c2ccc(C3CCC(C)(C)CC3)cc2C(F)(F)F)n1 [Example 698] | 4.00 to 6.00
42 | COc1cc(C(=O)O)ccc1NS(=O)(=O)c1csc(-c2cccc(C3CCCCC3)c2)n1 [Example 366] | 6.30 to 7.00
43 | COc1cc(C(=O)O)ccc1NS(=O)(=O)c1coc(-c2ccccc2)n1 [Example 375] | > 7.00

The remaining lines, values ahead:

Row | pIC50 | SMILES
44 | 4.00 to 6.00 | O=C(O)c1cc2c(cc1F)N(S(=O)(=O)c1ccc(F)cc1)CCC2 [Example 14, 7-fluoro-1-((4-fluorophenyl)sulfonyl)-1,2,3,4-tetrahydroquinoline-6-carboxylic acid]
45 | 4.00 to 6.00 | O=C(O)c1ccc2cc(NS(=O)(=O)c3cnc(-c4ccc(F)cc4)s3)ccc2c1 [Example 387, 6-((2-(4-fluorophenyl)thiazole)-5-sulfonamido)-2-naphthoic acid]
46 | 6.30 to 7.00 | COc1cc(C(=O)O)c(F)cc1NS(=O)(=O)c1ncc(-c2ccc(C3CCCCC3)cc2)s1 [Example 616]
47 | 4.00 to 6.00 | COc1cc(C(=O)N(C)O)ccc1NS(=O)(=O)c1cnc(-c2ccc(F)cc2)s1 [Example 71]
48 | 4.00 to 6.00 | O=C(O)c1ccc(NS(=O)(=O)c2cnc(-c3ccc(F)cc3)s2)c(C2CC2)c1 [Example 44]
49 | > 7.00 | COc1cc(C(=O)O)c(F)cc1NS(=O)(=O)c1csc(-c2ccc(C3=CCC(C)(C)CC3)c(C(F)(F)F)c2)n1 [Example 515]
50 | > 7.00 | COc1cc(C(=O)O)c(F)cc1NS(=O)(=O)c1cccc(-c2ccc(C3=CCC(C(C)(C)C)CC3)cc2)c1F (centres unmarked) [Example 498]
51 | 6.30 to 7.00 | COc1cc(C(=O)O)c(F)cc1NS(=O)(=O)c1csc(-c2ccc(-c3ccccc3O)cc2)n1 [Example 531]
52 | > 7.00 | COc1cc(C(=O)O)c(F)cc1NS(=O)(=O)c1csc(-c2ccc(C3=CCC(C)(C)CC3)cc2OC)n1 [Example 536]
53 | 4.00 to 6.00 | COc1cc(C(=O)O)ccc1NS(=O)(=O)c1csc(N2CCCC(c3ccc(C(F)(F)F)cc3)C2)n1 (centres unmarked) [Example 293]
54 | 6.30 to 7.00 | COc1cc(C(=O)O)ccc1NS(=O)(=O)c1cnc(-c2ccc(-c3ccc4c(c3)CCCC4)cc2)s1 [Example 427]
55 | < 4.00 | COc1cc(C(=O)O)ccc1NS(=O)(=O)N1CCN(c2nccs2)CC1 [Example 314]
56 | 6.30 to 7.00 | COc1cc(C(=O)O)ccc1NS(=O)(=O)c1cnc(-c2ccc(C3=CCC4(CC3)CC4)cc2)s1 [Example 736]
57 | 4.00 to 6.00 | COC(=O)c1ccc(NS(=O)(=O)c2cnc(-c3ccc(F)cc3)s2)cc1C [Example 18]
58 | 6.30 to 7.00 | COc1cncc(C#Cc2nc(S(=O)(=O)Nc3ccc(C(=O)O)cc3OC)cs2)c1 [Example 248]
59 | 6.00 to 6.30 | O=C(O)c1ccc(NS(=O)(=O)c2csc(-c3ccccc3)n2)cc1 [Example 15]
60 | 6.30 to 7.00 | COc1cc(C(=O)O)ccc1NS(=O)(=O)c1ccc(-c2ccccc2C)s1 [Example 194]
61 | 6.30 to 7.00 | COc1cc(C(=O)O)ccc1NS(=O)(=O)c1cnc(-c2ccc(-c3ccc(C(F)(F)C(F)(F)F)cc3)cc2)s1 [Example 714]
62 | 6.30 to 7.00 | COc1cc(C(=O)O)c(F)cc1NS(=O)(=O)c1csc(-c2ccc(-c3ccc(C4CCC(C(C)(C)C)CC4)cc3C(F)(F)F)cc2C(F)(F)F)n1 (centres unmarked) [Example 781]
63 | 4.00 to 6.00 | COc1cc(C(=O)O)ccc1NS(=O)(=O)c1csc(N2CCN(C(=O)OC(C)C)CC2)n1 [Example 347]
64 | 6.30 to 7.00 | COc1cc(C(=O)O)ccc1NS(=O)(=O)c1ccc(-c2cccc(-c3ccc(C)cc3)c2)s1 [Example 250, 3-methoxy-4-((5-(4′-methyl-[1,1′-biphenyl]-3-yl)thiophene)-2-sulfonamido)benzoic acid]
65 | 4.00 to 6.00 | O=C(O)c1ccc(NS(=O)(=O)c2cnc(-c3ccc(F)cc3)s2)c2ncccc12 [Example 82]
